Data as given in PubChem BioAssay (NCI).
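How tested: cells in 96-well plates exposed to compound for 48 hours at five concentrations. At the TGI there is no net growth.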

Key:
Assay in all cases: DTP human tumour cell line panel, 48 h
KM20L2 colon = test system: KM20L2 colon
A498 renal = test system: A498 renal
A549 NSCLC = test system: A549 NSCLC
HCT-15 colon = test system: HCT-15 colon
U251 CNS = test system: U251 CNS
SF-268 CNS = test system: SF-268 CNS
OVCAR-8 ovarian = test system: OVCAR-8 ovarian
M14 melanoma = test system: M14 melanoma
HT29 colon = test system: HT29 colon
UACC-257 melanoma = test system: UACC-257 melanoma
OVCAR-5 ovarian = test system: OVCAR-5 ovarian
OVCAR-4 ovarian = test system: OVCAR-4 ovarian
SK-MEL-5 melanoma = test system: SK-MEL-5 melanoma
XF 498 CNS = test system: XF 498 CNS
SNB-78 CNS = test system: SNB-78 CNS
CCRF-CEM leukemia = test system: CCRF-CEM leukemia
SN12C renal = test system: SN12C renal
CAKI-1 renal = test system: CAKI-1 renal
SF-295 CNS = test system: SF-295 CNS
SK-MEL-28 melanoma = test system: SK-MEL-28 melanoma
MOLT-4 leukemia = test system: MOLT-4 leukemia
NCI-H522 lung = test system: NCI-H522 lung
HCC-2998 colon = test system: HCC-2998 colon
NCI-H23 lung = test system: NCI-H23 lung
DLD-1 colon = test system: DLD-1 colon
ACHN renal = test system: ACHN renal
SW-620 colon = test system: SW-620 colon
OVCAR-3 ovarian = test system: OVCAR-3 ovarian
LXFL 529 NSCLC = test system: LXFL 529 NSCLC
K-562 leukemia = test system: K-562 leukemia
EKVX NSCLC = test system: EKVX NSCLC
RPMI-8226 leukemia = test system: RPMI-8226 leukemia
SNB-75 CNS = test system: SNB-75 CNS
786-0 renal = test system: 786-0 renal
UO-31 renal = test system: UO-31 renal
KM12 colon = test system: KM12 colon
SNB-19 CNS = test system: SNB-19 CNS
MALME-3M melanoma = test system: MALME-3M melanoma
NCI-H460 lung = test system: NCI-H460 lung
SK-MEL-2 melanoma = test system: SK-MEL-2 melanoma
HOP-62 NSCLC = test system: HOP-62 NSCLC
TK-10 renal = test system: TK-10 renal
UACC-62 melanoma = test system: UACC-62 melanoma
DMS 114 small cell lung = test system: DMS 114 small cell lung
COLO 205 colon = test system: COLO 205 colon
IGROV1 ovarian = test system: IGROV1 ovarian
HOP-92 NSCLC = test system: HOP-92 NSCLC
SR leukemia = test system: SR leukemia
SK-OV-3 ovarian = test system: SK-OV-3 ovarian
NCI-H226 lung = test system: NCI-H226 lung
LOX IMVI melanoma = test system: LOX IMVI melanoma
M19-MEL melanoma = test system: M19-MEL melanoma
HL-60(TB) leukemia = test system: HL-60(TB) leukemia
HOP-18 NSCLC = test system: HOP-18 NSCLC
DMS 273 small cell lung = test system: DMS 273 small cell lung
RXF 393 renal = test system: RXF 393 renal
HCT-116 colon = test system: HCT-116 colon
SF-539 CNS = test system: SF-539 CNS

Measured: TGI

COc1ccc(C[C@@H]2Cc3cc(OC)c(OC)cc3CN2C)cc1
not listed: UACC-62 melanoma | DMS 114 small cell lung | COLO 205 colon | IGROV1 ovarian | HOP-92 NSCLC | SR leukemia | SK-OV-3 ovarian | NCI-H226 lung | LOX IMVI melanoma | M19-MEL melanoma | HL-60(TB) leukemia | HOP-18 NSCLC | DMS 273 small cell lung | RXF 393 renal | HCT-116 colon | SF-539 CNS
> 100 µM: all other assays above

CC(=O)c1cccc(NC(=O)/C(=N\NC(C)(C)C)c2c(O)c3ccccc3oc2=O)c1
not listed: A498 renal | U251 CNS | OVCAR-5 ovarian | SNB-78 CNS | K-562 leukemia | RPMI-8226 leukemia
> 100 µM: all other assays above

O=S(=O)(/C=C/c1ccc(Cl)cc1Cl)Cc1ccccc1CS(=O)(=O)/C=C/c1ccc(Cl)cc1Cl
not listed: SK-MEL-5 melanoma | MALME-3M melanoma | HL-60(TB) leukemia | HOP-18 NSCLC
> 100 µM: all other assays above

COc1cccc2c1CCc1ccccc1CC2=O
not listed: SNB-78 CNS | HOP-62 NSCLC
> 100 µM: all other assays above
